Test results: ChEMBL document CHEMBL1153197, “Synthetic studies and pharmacological evaluations on the MDMA ('Ecstasy') antagonist nantenine” (Bioorg Med Chem Lett, 2010)
Calls of active or inactive are those of the source. The rule behind the calls is not given here.

Tests used:
[1] = system: Rattus norvegicus; experiment: Inhibition of MDMA-induced behavioral suppression in rat assessed as earning of 20 food pellets at 0.3 mg/kg, ip administered 15 mins before MDMA challenge by food-reinforced operant task method; assay type: functional, organism-based; parameters: dose 0.3 mg/kg
[2] = system: Rattus norvegicus; experiment: Toxicity in rat at 1 mg/kg, ip after 15 mins; assay type: organism-based; parameters: dose 1 mg/kg, route intraperitoneal; settings: in vivo, 0.25 h
[3] = system: Rattus norvegicus; experiment: Inhibition of MDMA-induced behavioral suppression in rat assessed as earning of 20 food pellets at 0.1 mg/kg, ip administered 15 mins before MDMA challenge by food-reinforced operant task method; assay type: functional, organism-based; parameters: dose 0.1 mg/kg
[4] = biological target: 5-hydroxytryptamine receptor 1E (Homo sapiens, UniProt P28566); experiment: Displacement of [3H]5-HT from human 5HT1E receptor
[5] = biological target: Beta-1 adrenergic receptor (Homo sapiens, UniProt P08588); experiment: Displacement of [125I]Iodopindolol from human adrenergic beta-1 receptor
[6] = biological target: Alpha-2B adrenergic receptor (Homo sapiens, UniProt P18089); experiment: Displacement of [3H]Clonidine from human adrenergic alpha2B receptor
[7] = biological target: 5-hydroxytryptamine receptor 2A (Homo sapiens, UniProt P28223); experiment: Displacement of [3H]Ketanserin from human 5HT2A receptor
[8] = biological target: D(4) dopamine receptor (Homo sapiens, UniProt P21917); experiment: Displacement of [3H]N-methylspiperone from human dopamine D4 receptor
[9] = biological target: Alpha-1B adrenergic receptor (Homo sapiens, UniProt P35368); experiment: Displacement of [3H]Prazosin from human adrenergic Alpha-1B receptor
[10] = biological target: D(3) dopamine receptor (Homo sapiens, UniProt P35462); experiment: Displacement of [3H]N-methylspiperone from human dopamine D3 receptor
[11] = biological target: 5-hydroxytryptamine receptor 1D (Homo sapiens, UniProt P28221); experiment: Displacement of [3H]GR127543 from human 5HT1D receptor
[12] = biological target: Sodium-dependent dopamine transporter (Homo sapiens, UniProt Q01959); experiment: Displacement of [3H]WIN-35428 from human DAT
[13] = Displacement of [3H]DTG from human sigma 2 receptor
[14] = biological target: D(1A) dopamine receptor (Homo sapiens, UniProt P21728); experiment: Displacement of [3H]SCH233930 from human dopamine D1 receptor
[15] = biological target: Alpha-1A adrenergic receptor (Homo sapiens, UniProt P35348); experiment: Displacement of [3H]Prazosin from human adrenergic alpha1A receptor
[16] = biological target: 5-hydroxytryptamine receptor 1B (Homo sapiens, UniProt P28222); experiment: Displacement of [3H]GR127543 from human 5HT1B receptor
[17] = biological target: Histamine H3 receptor (Homo sapiens, UniProt Q9Y5N1); experiment: Displacement of [3H]alpha-methylhistamine from human histamine H3 receptor
[18] = biological target: Sodium-dependent noradrenaline transporter (Homo sapiens, UniProt P23975); experiment: Displacement of [3H]Nisoxetine from human NET
[19] = biological target: 5-hydroxytryptamine receptor 2B (Homo sapiens, UniProt P41595); experiment: Displacement of [3H]LSD from human 5HT2B receptor
[20] = biological target: D(1B) dopamine receptor (Homo sapiens, UniProt P21918); experiment: Displacement of [3H]SCH233930 from human dopamine D5 receptor
[21] = biological target: 5-hydroxytryptamine receptor 7 (Homo sapiens, UniProt P34969); experiment: Displacement of [3H]LSD from human 5HT7 receptor
[22] = biological target: Delta-type opioid receptor (Homo sapiens, UniProt P41143); experiment: Displacement of [3H]DADLE from human DOR
[23] = biological target: D(2) dopamine receptor (Homo sapiens, UniProt P14416); experiment: Displacement of [3H]N-methylspiperone from human dopamine D2 receptor
[24] = biological target: Muscarinic acetylcholine receptor M3 (Homo sapiens, UniProt P20309); experiment: Displacement of [3H]QNB from human muscarinic M3 receptor
[25] = biological target: Sodium-dependent serotonin transporter (Homo sapiens, UniProt P31645); experiment: Displacement of [3H]Citalopram from human SERT
[26] = biological target: Muscarinic acetylcholine receptor M4 (Homo sapiens, UniProt P08173); experiment: Displacement of [3H]QNB from human muscarinic M4 receptor
[27] = biological target: Beta-3 adrenergic receptor (Homo sapiens, UniProt P13945); experiment: Displacement of [125I]Iodopindolol from human adrenergic beta3 receptor
[28] = biological target: Histamine H2 receptor (Homo sapiens, UniProt P25021); experiment: Displacement of [3H]Tiotidine from human histamine H2 receptor
[29] = biological target: Histamine H1 receptor (Homo sapiens, UniProt P35367); experiment: Displacement of [3H]Pyrilamine from human histamine H1 receptor
[30] = biological target: Muscarinic acetylcholine receptor M1 (Homo sapiens, UniProt P11229); experiment: Displacement of [3H]QNB from human muscarinic M1 receptor
[31] = biological target: 5-hydroxytryptamine receptor 3A (Homo sapiens, UniProt P46098); experiment: Displacement of [3H]LY278584 from human 5HT3 receptor
[32] = biological target: Muscarinic acetylcholine receptor M2 (Homo sapiens, UniProt P08172); experiment: Displacement of [3H]QNB from human muscarinic M2 receptor
[33] = biological target: 5-hydroxytryptamine receptor 6 (Homo sapiens, UniProt P50406); experiment: Displacement of [3H]LSD from human 5HT6 receptor
[34] = biological target: Alpha-2A adrenergic receptor (Homo sapiens, UniProt P08913); experiment: Displacement of [3H]Clonidine from human adrenergic alpha2A receptor
[35] = biological target: Alpha-2C adrenergic receptor (Homo sapiens, UniProt P18825); experiment: Displacement of [3H]Clonidine from human adrenergic Alpha-2C receptor
[36] = biological target: 5-hydroxytryptamine receptor 2C (Homo sapiens, UniProt P28335); experiment: Displacement of [3H]Mesulergine from human 5HT2C receptor
[37] = biological target: Beta-2 adrenergic receptor (Homo sapiens, UniProt P07550); experiment: Displacement of [125I]Iodopindolol from human adrenergic beta2 receptor
[38] = biological target: Histamine H4 receptor (Homo sapiens, UniProt Q9H3N8); experiment: Displacement of [3H]Histamine from human histamine H4 receptor
[39] = biological target: Kappa-type opioid receptor (Homo sapiens, UniProt P41145); experiment: Displacement of [3H]U69593 from human KOR
[40] = biological target: Alpha-1D adrenergic receptor (Homo sapiens, UniProt P25100); experiment: Binding affinity to human adrenergic Alpha-1D receptor
[41] = biological target: 5-hydroxytryptamine receptor 5A (Homo sapiens, UniProt P47898); experiment: Displacement of [3H]LSD from human 5HT5A receptor
[42] = biological target: Mu-type opioid receptor (Homo sapiens, UniProt P35372); experiment: Displacement of [3H]DAMGO from human MOR

Sequence of Muscarinic acetylcholine receptor M1 (P11229 whole entry): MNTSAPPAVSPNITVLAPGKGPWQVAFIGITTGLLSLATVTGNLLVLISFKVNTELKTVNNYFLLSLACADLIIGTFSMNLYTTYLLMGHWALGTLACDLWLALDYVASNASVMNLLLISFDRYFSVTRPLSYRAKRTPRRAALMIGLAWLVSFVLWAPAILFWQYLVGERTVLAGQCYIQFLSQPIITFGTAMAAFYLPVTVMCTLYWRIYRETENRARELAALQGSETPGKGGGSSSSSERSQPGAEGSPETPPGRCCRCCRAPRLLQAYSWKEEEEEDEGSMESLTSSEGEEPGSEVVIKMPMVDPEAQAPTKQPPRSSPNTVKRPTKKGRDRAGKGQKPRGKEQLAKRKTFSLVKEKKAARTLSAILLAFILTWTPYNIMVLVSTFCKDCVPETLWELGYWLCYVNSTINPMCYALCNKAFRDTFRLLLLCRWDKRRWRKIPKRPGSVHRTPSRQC
Sequence of 5-hydroxytryptamine receptor 2C (P28335 whole entry): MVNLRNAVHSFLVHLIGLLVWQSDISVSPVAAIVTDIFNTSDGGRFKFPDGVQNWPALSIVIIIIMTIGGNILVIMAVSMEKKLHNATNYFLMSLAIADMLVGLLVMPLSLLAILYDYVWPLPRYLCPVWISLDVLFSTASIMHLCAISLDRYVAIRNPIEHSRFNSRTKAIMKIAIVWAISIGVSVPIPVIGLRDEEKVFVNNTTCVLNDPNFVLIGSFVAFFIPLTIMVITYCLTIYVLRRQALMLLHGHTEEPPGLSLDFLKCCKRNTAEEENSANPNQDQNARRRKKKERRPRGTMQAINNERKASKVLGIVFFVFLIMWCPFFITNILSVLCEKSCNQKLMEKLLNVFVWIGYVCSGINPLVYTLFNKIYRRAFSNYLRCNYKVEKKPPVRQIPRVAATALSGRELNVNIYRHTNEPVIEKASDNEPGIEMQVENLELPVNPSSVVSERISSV
Sequence of Alpha-1B adrenergic receptor (P35368 whole entry): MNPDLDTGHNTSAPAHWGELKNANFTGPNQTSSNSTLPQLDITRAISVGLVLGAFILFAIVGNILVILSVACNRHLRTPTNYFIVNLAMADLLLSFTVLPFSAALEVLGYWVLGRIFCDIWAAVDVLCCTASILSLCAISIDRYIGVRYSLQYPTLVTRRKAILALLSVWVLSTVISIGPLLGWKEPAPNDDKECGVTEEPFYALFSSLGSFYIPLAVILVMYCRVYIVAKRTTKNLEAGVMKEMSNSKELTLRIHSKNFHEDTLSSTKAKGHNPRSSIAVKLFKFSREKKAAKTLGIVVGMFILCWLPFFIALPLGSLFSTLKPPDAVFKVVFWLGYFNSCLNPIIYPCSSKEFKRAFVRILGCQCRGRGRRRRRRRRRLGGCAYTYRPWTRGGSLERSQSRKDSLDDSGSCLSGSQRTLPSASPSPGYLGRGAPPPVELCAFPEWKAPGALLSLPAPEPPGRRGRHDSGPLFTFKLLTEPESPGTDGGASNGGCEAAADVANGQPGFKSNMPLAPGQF
Sequence of 5-hydroxytryptamine receptor 1D (P28221 whole entry): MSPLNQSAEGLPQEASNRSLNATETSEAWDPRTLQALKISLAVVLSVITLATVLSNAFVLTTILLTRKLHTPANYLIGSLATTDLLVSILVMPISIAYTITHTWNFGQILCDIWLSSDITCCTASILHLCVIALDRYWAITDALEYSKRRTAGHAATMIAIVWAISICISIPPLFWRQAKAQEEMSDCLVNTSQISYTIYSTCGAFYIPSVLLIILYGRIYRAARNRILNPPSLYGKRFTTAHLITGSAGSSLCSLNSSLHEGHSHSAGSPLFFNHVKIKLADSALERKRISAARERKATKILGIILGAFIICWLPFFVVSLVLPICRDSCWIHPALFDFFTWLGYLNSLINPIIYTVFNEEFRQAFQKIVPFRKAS
Sequence of Alpha-2B adrenergic receptor (P18089 whole entry): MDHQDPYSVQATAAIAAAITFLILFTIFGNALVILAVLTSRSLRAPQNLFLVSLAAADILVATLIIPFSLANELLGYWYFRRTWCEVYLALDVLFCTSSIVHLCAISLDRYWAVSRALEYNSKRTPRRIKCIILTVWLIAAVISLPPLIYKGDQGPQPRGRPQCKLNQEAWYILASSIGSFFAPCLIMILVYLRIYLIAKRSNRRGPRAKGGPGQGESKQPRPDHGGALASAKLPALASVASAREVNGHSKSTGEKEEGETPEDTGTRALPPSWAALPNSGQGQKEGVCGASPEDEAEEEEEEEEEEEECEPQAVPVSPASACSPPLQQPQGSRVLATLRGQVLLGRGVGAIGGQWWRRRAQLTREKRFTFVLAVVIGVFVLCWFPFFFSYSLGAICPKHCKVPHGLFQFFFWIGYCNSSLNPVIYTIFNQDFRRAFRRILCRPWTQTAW
Sequence of 5-hydroxytryptamine receptor 7 (P34969 whole entry): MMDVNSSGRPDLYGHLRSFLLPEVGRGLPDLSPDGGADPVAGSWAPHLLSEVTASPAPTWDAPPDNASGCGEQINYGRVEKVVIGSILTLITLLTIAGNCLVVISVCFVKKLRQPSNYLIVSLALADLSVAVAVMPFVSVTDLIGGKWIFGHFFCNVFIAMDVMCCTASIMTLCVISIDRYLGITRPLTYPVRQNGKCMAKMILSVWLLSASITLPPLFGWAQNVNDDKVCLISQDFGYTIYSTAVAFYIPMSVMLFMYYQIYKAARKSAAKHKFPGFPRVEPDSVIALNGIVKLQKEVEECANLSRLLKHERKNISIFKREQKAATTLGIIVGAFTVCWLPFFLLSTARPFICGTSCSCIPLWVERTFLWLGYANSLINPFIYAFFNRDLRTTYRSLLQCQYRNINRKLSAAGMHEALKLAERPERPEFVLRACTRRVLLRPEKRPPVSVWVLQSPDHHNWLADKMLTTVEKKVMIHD
Sequence of D(4) dopamine receptor (P21917 whole entry): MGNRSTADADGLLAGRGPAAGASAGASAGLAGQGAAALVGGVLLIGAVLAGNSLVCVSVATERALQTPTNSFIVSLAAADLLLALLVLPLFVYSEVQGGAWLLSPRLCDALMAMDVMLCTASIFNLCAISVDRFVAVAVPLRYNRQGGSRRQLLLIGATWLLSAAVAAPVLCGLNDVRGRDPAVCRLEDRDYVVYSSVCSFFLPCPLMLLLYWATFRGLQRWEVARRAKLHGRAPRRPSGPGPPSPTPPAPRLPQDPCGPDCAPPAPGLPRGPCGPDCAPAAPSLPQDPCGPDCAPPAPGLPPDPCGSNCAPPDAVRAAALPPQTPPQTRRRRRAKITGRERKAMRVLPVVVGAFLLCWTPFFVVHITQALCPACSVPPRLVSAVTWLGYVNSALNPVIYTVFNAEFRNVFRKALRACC
Sequence of Histamine H1 receptor (P35367 whole entry): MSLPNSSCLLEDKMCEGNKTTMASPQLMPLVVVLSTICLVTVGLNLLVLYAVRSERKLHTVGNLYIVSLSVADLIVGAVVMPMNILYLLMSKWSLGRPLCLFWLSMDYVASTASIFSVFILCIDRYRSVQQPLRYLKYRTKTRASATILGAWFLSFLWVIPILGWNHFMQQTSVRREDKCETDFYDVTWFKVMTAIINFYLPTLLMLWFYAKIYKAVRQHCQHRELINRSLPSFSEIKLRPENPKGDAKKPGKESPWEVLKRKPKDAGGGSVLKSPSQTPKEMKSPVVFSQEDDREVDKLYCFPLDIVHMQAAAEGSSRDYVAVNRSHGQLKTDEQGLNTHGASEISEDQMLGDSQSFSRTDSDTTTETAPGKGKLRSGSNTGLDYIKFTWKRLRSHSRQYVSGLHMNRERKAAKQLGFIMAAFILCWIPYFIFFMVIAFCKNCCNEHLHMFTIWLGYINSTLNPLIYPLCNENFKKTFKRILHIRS
Sequence of D(3) dopamine receptor (P35462 whole entry): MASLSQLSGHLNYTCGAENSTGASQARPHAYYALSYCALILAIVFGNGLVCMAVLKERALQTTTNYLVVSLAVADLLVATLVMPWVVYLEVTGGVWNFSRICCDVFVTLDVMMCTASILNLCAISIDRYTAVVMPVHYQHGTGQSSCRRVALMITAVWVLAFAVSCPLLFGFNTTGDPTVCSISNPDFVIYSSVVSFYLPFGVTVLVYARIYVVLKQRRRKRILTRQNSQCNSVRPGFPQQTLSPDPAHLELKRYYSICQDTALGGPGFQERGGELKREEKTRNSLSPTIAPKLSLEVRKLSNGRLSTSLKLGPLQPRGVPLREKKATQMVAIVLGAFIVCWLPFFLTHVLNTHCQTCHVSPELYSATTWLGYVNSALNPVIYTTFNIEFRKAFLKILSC
Sequence of Kappa-type opioid receptor (P41145 whole entry): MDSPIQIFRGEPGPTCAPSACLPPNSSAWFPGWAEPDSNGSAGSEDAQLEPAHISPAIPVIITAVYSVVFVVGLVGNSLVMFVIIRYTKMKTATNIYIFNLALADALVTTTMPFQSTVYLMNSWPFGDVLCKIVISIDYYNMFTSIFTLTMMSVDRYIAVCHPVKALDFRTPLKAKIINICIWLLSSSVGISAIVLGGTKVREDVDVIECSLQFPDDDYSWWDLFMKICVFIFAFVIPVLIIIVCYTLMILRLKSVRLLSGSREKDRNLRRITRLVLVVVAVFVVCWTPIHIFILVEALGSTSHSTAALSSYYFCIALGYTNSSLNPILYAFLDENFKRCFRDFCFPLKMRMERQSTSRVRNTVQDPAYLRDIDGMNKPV
Sequence of D(2) dopamine receptor (P14416 whole entry): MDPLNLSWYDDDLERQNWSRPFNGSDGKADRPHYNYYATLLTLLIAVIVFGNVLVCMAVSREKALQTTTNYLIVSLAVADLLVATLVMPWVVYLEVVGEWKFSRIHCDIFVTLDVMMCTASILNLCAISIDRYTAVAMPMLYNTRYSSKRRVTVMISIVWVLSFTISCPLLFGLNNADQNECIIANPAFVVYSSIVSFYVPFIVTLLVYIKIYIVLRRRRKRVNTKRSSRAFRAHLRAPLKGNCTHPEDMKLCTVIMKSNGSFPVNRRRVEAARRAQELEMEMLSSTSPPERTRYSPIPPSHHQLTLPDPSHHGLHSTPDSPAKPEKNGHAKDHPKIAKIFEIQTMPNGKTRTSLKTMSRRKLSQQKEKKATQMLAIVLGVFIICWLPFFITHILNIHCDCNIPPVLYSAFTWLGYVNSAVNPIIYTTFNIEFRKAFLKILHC

## O=C(c1ccc(F)cc1)C1CCN(CCn2c(=O)[nH]c3ccccc3c2=O)CC1 [KETANSERIN]
[1]
  Activity: Active
[2]
  Activity: Toxic
[3]
  Activity: Active

## COc1cc2c3c(c1OC)-c1cc4c(cc1CC3N(C)CC2)OCO4 (racemic) [NANTENINE]
[4]
  Ki: > 10000 nM
[5]
  Ki: 8570 nM
[6]
  Ki: 252 nM
[7]
  Ki: 832 nM
[8]
  Ki: 262 nM
[9]
  Ki: 1190 nM
[10]
  Ki: 309 nM
[11]
  Ki: 49 nM
[12]
  Ki: > 10000 nM
[13]
  Ki: > 10000 nM
[14]
  Ki: 895 nM
[15]
  Ki: 2 nM
[16]
  Ki: 100 nM
[17]
  Ki: > 10000 nM
[18]
  Ki: > 10000 nM
[19]
  Ki: 543 nM
[20]
  Ki: 2400 nM
[21]
  Ki: 67 nM
[22]
  Ki: > 10000 nM
[23]
  Ki: 858 nM
[24]
  Ki: > 10000 nM
[25]
  Ki: 244 nM
[26]
  Ki: > 10000 nM
[27]
  Ki: > 10000 nM
[28]
  Ki: 672 nM
[29]
  Ki: > 10000 nM
[30]
  Ki: > 10000 nM
[31]
  Ki: > 10000 nM
[32]
  Ki: > 10000 nM
[33]
  Ki: 257 nM
[34]
  Ki: 1290 nM
[35]
  Ki: 181 nM
[36]
  Ki: 1070 nM
[37]
  Ki: > 10000 nM
[38]
  Ki: > 10000 nM
[39]
  Ki: > 10000 nM
[40]
  Ki: 340 nM
[41]
  Ki: 2220 nM
[42]
  Ki: 7260 nM
